Assay results as given in publication PMC8015787 (Biochemistry, 2021).

Biological target: T1, 1-deoxy-D-xylulose 5-phosphate synthase (DXPS) (Escherichia coli, UniProt P77488)
T1 sequence (P77488 2-620): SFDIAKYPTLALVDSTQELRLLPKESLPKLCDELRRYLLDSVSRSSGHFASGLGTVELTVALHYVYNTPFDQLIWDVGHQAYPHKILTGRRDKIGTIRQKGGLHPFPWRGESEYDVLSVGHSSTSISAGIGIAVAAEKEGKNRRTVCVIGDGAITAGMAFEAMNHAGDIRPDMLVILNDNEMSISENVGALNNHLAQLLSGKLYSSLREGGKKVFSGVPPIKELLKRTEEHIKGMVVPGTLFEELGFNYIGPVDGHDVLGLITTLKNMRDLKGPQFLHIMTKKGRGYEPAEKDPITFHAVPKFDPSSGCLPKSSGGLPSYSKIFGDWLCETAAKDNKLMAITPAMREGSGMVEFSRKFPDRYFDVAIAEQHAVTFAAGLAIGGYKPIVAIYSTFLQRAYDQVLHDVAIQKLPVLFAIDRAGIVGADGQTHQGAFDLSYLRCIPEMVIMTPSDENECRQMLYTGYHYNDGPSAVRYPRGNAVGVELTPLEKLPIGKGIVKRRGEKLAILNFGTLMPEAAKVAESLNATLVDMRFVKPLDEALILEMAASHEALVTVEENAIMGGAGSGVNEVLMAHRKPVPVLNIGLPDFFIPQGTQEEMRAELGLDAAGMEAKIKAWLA
Test: CD titration of the ThDP-bound pre-decarboxylation intermediate, anaerobic
Assay type: binding

CCC(=O)C(=O)O [compound 2, ketobutyrate]
Kd: 16 ± 9 µM
